From ChEMBL document CHEMBL1201862, “PubChem BioAssay data set” (2004)
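Cultured in 96-well plates, cells were exposed to test compound for 48 hours across five concentrations. At the GI50, growth is halved.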 The source made the active and inactive calls. Rule as the data show it: active = GI50 up to about 1.1 µM and inactive = higher.

Experiments:
Experiment in all cases: NCI anticancer screen, dose series, 48 h
SN12C = tested on: SN12C
NCI/ADR-RES = tested on: NCI/ADR-RES
SNB-19 = tested on: SNB-19
U-251 = tested on: U-251
HCC 2998 = tested on: HCC 2998
SK-MEL-5 = tested on: SK-MEL-5
SK-MEL-2 = tested on: SK-MEL-2
NCI-H23 = tested on: NCI-H23
CCRF-CEM = tested on: CCRF-CEM
BT-549 = tested on: BT-549
KM12 = tested on: KM12
ACHN = tested on: ACHN
UACC-62 = tested on: UACC-62
OVCAR-5 = tested on: OVCAR-5
M14 = tested on: M14
TK-10 = tested on: TK-10
SNB-75 = tested on: SNB-75
SF-295 = tested on: SF-295
MDA-N = tested on: MDA-N
786-0 = tested on: 786-0

Measured: GI50

Oc1c(Br)c(-c2ccccc2)nc2ccccc12
inactive: SN12C 6.67 µM | NCI/ADR-RES 35.1 µM | SNB-19 > 10 µM | U-251 98.4 µM | HCC 2998 > 10 µM | SK-MEL-5 8.15 µM | SK-MEL-2 > 10 µM | NCI-H23 22.1 µM | CCRF-CEM 44 µM | BT-549 58.1 µM | KM12 1.18 µM | ACHN 35.8 µM | UACC-62 21.9 µM | OVCAR-5 > 10 µM | M14 47 µM | TK-10 57.8 µM | SNB-75 8.15 µM | SF-295 8.75 µM | MDA-N 39.2 µM

Cc1ccc(C2=Nc3c(N)nc(N)nc3NC(c3ccccc3)C2)cc1 (centres undefined)
inactive: SN12C 12.2 µM | NCI/ADR-RES 3.97 µM | SNB-19 14.2 µM | U-251 12.8 µM | HCC 2998 4.44 µM | NCI-H23 11.1 µM | CCRF-CEM 7.83 µM | BT-549 7.23 µM | ACHN 15.4 µM | UACC-62 8.15 µM | OVCAR-5 18 µM | M14 6.4 µM | TK-10 16.9 µM | SNB-75 11.2 µM | 786-0 13.2 µM | MDA-N 2.12 µM

O=C(O)C(CCc1ccccn1)c1ccccc1 (centres undefined)
inactive: SN12C > 100 µM | NCI/ADR-RES > 100 µM | SNB-19 > 100 µM | U-251 > 100 µM | HCC 2998 > 100 µM | SK-MEL-5 > 100 µM | SK-MEL-2 > 100 µM | NCI-H23 > 100 µM | BT-549 > 100 µM | KM12 > 100 µM | ACHN > 100 µM | UACC-62 > 100 µM | OVCAR-5 > 100 µM | M14 > 100 µM | TK-10 > 100 µM | SNB-75 > 100 µM | SF-295 > 100 µM | 786-0 > 100 µM | MDA-N > 100 µM

CC1=NC(=Cc2ccccc2O)C(=O)N1n1c(-c2ccccc2)nc2ccccc2c1=O
inactive: SN12C 39.9 µM | NCI/ADR-RES 33.3 µM | SNB-19 65.5 µM | U-251 38.4 µM | HCC 2998 38.1 µM | SK-MEL-5 23.8 µM | NCI-H23 32.8 µM | CCRF-CEM 26.6 µM | BT-549 57.7 µM | KM12 67 µM | ACHN 29.7 µM | UACC-62 14.3 µM | OVCAR-5 40.5 µM | M14 61.1 µM | TK-10 39.4 µM | SNB-75 34.1 µM | SF-295 37.3 µM | 786-0 45.5 µM | MDA-N 41.3 µM

CCc1nnc(-n2c(C)nc3cc(Cl)ccc3c2=O)s1
inactive: SN12C 34.2 µM | NCI/ADR-RES 39.6 µM | SNB-19 36.1 µM | U-251 42.7 µM | HCC 2998 49.8 µM | SK-MEL-5 21.3 µM | NCI-H23 31.6 µM | CCRF-CEM 19.6 µM | BT-549 44.6 µM | KM12 38.5 µM | ACHN 33.8 µM | UACC-62 22.1 µM | OVCAR-5 > 100 µM | M14 38.7 µM | TK-10 40.9 µM | SNB-75 34.9 µM | SF-295 21.4 µM | 786-0 26.5 µM | MDA-N 13.3 µM

COc1cc2cc(C(=O)Nc3cc4n(n3)-c3ccccc3C4)[nH]c2c(OC)c1OC
inactive: SN12C 8.79 µM | NCI/ADR-RES 1.25 µM | SNB-19 9.48 µM | U-251 8.04 µM | HCC 2998 10.4 µM | SK-MEL-5 1.41 µM | SK-MEL-2 2.3 µM | NCI-H23 2.75 µM | CCRF-CEM 1.38 µM | BT-549 1.19 µM | KM12 1.85 µM | ACHN 4.72 µM | OVCAR-5 8.93 µM | M14 2 µM | TK-10 1.85 µM | SNB-75 5.83 µM | SF-295 3.4 µM | 786-0 8.39 µM | MDA-N 2.35 µM

NC(CCCCP(=O)(O)O)C(=O)O (centres undefined)
inactive: SN12C > 100 µM | NCI/ADR-RES > 100 µM | SNB-19 > 100 µM | U-251 > 100 µM | HCC 2998 > 100 µM | SK-MEL-5 > 100 µM | SK-MEL-2 > 100 µM | NCI-H23 > 100 µM | CCRF-CEM > 100 µM | BT-549 > 100 µM | KM12 > 100 µM | ACHN > 100 µM | UACC-62 > 100 µM | OVCAR-5 > 100 µM | M14 > 100 µM | TK-10 > 100 µM | SNB-75 > 100 µM | SF-295 > 100 µM | MDA-N > 100 µM

COC(=O)c1n[nH]c(C)c1/N=N/N(C)CCC#N
inactive: SN12C 16.5 µM | NCI/ADR-RES 16.2 µM | SNB-19 28.7 µM | U-251 16.7 µM | HCC 2998 19.5 µM | SK-MEL-5 26.9 µM | SK-MEL-2 23.6 µM | NCI-H23 16.3 µM | CCRF-CEM 7.67 µM | BT-549 10.9 µM | KM12 14.8 µM | ACHN 11.6 µM | UACC-62 15.7 µM | M14 30.8 µM | TK-10 20.9 µM | SNB-75 13.4 µM | SF-295 24.9 µM | 786-0 17.7 µM | MDA-N 47.5 µM
